Experimental data published in patent US12054494B2, “Compound with anticancer activity” (KYOWA KIRIN CO., LTD., priority 2018, dated 2024).

Tested on: SU-DHL-4 cells
Test: Inhibitory effect on cell viability (Cell Counting Kit-8)
Assay type: cell-based
Settings: Homo sapiens, 72 hours culture with test compound, concentration showing 90% inhibition rate of cell viability
How it was run: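 SU-DHL-4 cells (2000/well, RPMI1640 with 10% FBS) precultured 18-25 h, then exposed to a 9-step compound dilution series (0.1% DMSO final) for 72 h at 37° C. Viability by CCK-8 absorbance at 450 nm after 2-3 h; IC90 computed from inhibition rate relative to untreated and cell-free wells.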

| Compound | IC90 |
| --- | --- |
| CCC(=O)N1c2ccccc2[C@H](Nc2ccc(NC(=O)CNC(=O)C=C3CCC(N[C@@H]4C[C@H](C)N(C(=O)CC)c5ccccc54)CC3)cc2)C[C@@H]1C (relative stereo) [Compound 15j, 2-(4-(((2S*,4R*)-2-Methyl-1-propionyl-1,2,3,4-tetrahydroquinolin-4-yl)amino)cyclohexylidene)-N-(2-((4-(((2S,4R)-2-methyl-1-propionyl-1,2,3,4-tetrahydroquinolin-4-yl)amino)phenyl)amino)-2-oxoethyl)acetamide] | 0.52 nM |
| CCC(=O)N1c2ccccc2[C@H](NCC2CCN(C(=O)N3CC(C(=O)Nc4ccc(N[C@@H]5C[C@H](C)N(C(=O)CC)c6ccccc65)cc4)C3)CC2)C[C@@H]1C (relative stereo) [Compound 10p, 1-(4-((((2S*,4R*)-2-Methyl-1-propionyl-1,2,3,4-tetrahydroquinolin-4-yl)amino)methyl)piperidine-1-carbonyl)-N-(4-(((2S,4R)-2-methyl-1-propionyl-1,2,3,4-tetrahydroquinolin-4-yl)amino)phenyl)azetidine-3-carboxamide] | 47.5 nM |
| CCC(=O)N1c2ccccc2[C@H](Nc2ccc(C(=O)NCc3ccc(-c4ccc(C5=NCc6nnc(C)n6-c6sc(C)c(C)c65)cc4)s3)cc2)C[C@@H]1C [Compound 14j, 4-(((2S,4R)-2-Methyl-1-propionyl-1,2,3,4-tetrahydroquinolin-4-yl)amino)-N-((5-(4-(2,3,9-trimethyl-6H-thieno[3,2-f][1,2,4]triazolo[4,3-a][1,4]diazepin-4-yl)phenyl)thiophen-2-yl)methyl)benzamide] | 0.74 nM |
| CCC(=O)N1c2ccccc2[C@H](Nc2ccc(Cc3cnc4n3CCN(Cc3ccc(N[C@@H]5C[C@H](C)N(C(=O)CC)c6ccccc65)cc3)C4)cc2)C[C@@H]1C [Compound 5c, 1,1′-((2S,2′S,4R,4′R)-((((5,6-Dihydroimidazo[1,2-a]pyrazine-3,7(8H)-diyl)bis(methylene))bis(4,1-phenylene))bis(azanediyl))bis(2-methyl-3,4-dihydroquinoline-4,1(2H)-diyl))bis(propan-1-one)] | 63.6 nM |
| CCC(=O)N1c2ccccc2[C@H](Nc2ccc(NC(=O)N3CCN(C(=O)c4ccc(N[C@@H]5C[C@H](C)N(C(=O)CC)c6ccccc65)cc4)CC3)cc2)C[C@@H]1C (relative stereo) [Compound 6m, 4-(4-(((2S,4R)-2-Methyl-1-propionyl-1,2,3,4-tetrahydroquinolin-4-yl)amino)benzoyl)-N-(4-(((2S*,4R*)-2-methyl-1-propionyl-1,2,3,4-tetrahydroquinolin-4-yl)amino)phenyl)piperazine-1-carboxamide] | 0.12 nM |
| CCC(=O)N1c2ccccc2[C@H](Nc2ccc(C(=O)N3CC4CC3CN4C(=O)c3ccc(N[C@@H]4C[C@H](C)N(C(=O)CC)c5ccccc54)cc3)cc2)C[C@@H]1C [Compound 1k, 1,1′-{(2S,2′S,4R,4′R)-{[(2,5-Diazabicyclo[2.2.1]heptane-2,5-dicarbonyl)bis(4,1-phenylene)]bis(azanediyl)}bis[2-methyl-3,4-dihydroquinoline-4,1(2H)-diyl]}bis(propan-1-one)] | 0.55 nM |
| CCC(=O)N1c2ccccc2[C@H](Nc2ccc(NC(=O)CCS(=O)(=O)c3ccc(N[C@@H]4C[C@H](C)N(C(=O)CC)c5ccccc54)cc3)cc2)C[C@@H]1C [Compound 5l, N-(4-(((2S,4R)-2-Methyl-1-propionyl-1,2,3,4-tetrahydroquinolin-4-yl)amino)phenyl)-3-((4-(((2S,4R)-2-methyl-1-propionyl-1,2,3,4-tetrahydroquinolin-4-yl)amino)phenyl)sulfonyl)propanamide] | 37 nM |
| CCC(=O)N1c2ccccc2[C@H](Nc2ccc(NC(=O)CCCC(=O)Nc3ccc(C4=NCc5nnc(C)n5-c5sc(C)c(C)c54)cc3)cc2)C[C@@H]1C (relative stereo) [Compound 14t, N^1-(4-(((2S*,4R*)-2-Methyl-1-propionyl-1,2,3,4-tetrahydroquinolin-4-yl)amino)phenyl)-N^5-(4-(2,3,9-trimethyl-6H-thieno[3,2-f][1,2,4]triazolo[4,3-a][1,4]diazepin-4-yl)phenyl)glutaramide] | 1.17 nM |
